Measured values: ChEMBL document CHEMBL1201862, “PubChem BioAssay data set” (2004)
Blank lines part the entries; values can stand above or below the molecule they belong to. Activity calls are given as the source filed them.

Assays:
Hexokinase-1 = Hexokinase-1 (Homo sapiens, UniProt P19367); assay: hexokinase 1 activators, dose response, selectivity assay for HKDC1 activator project, biochemical (AID 504762); format: functional
BJ [1] = assay: cells; format: functional, cell-based; details: Homo sapiens
[2] = target: Kappa-type opioid receptor (Homo sapiens, UniProt P41145); format: functional
Beta-galactosidase = Beta-galactosidase (Escherichia coli, UniProt Q8VNN2); format: functional
HeLa = assay: Cytotoxicity counterscreen assay for transcriptional activators of heat shock protein 70 (Hsp70). [Related pubchem assays: 1203, 1252 ]; format: functional; details: Homo sapiens;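 further: cells exposed to compound for 16 hours before readout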
BJ [3] = assay: cytotoxicity toward BJ-TERT fibroblasts, dose response, cell-based, RAS-independent, luminescence (AID 1933); format: functional; details: Homo sapiens
[4] = target: Serine/threonine-protein kinase pim-2 (Homo sapiens, UniProt Q9P1W9); format: functional;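 further: value comes from a broad kinase panel profiling study in which PIM2 was one of the panel members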
[5] = target: Testis-specific serine/threonine-protein kinase 1 (Homo sapiens, UniProt Q9BXA7); format: functional
[6] = target: MAP kinase-activated protein kinase 5 (Homo sapiens, UniProt Q8IW41); format: functional;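 further: measured as one member of a kinome panel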
[7] = target: Serine/threonine-protein kinase PLK1 (Homo sapiens, UniProt P53350); format: functional;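 further: PLK1 measured as one member of a kinome-wide profiling panel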
[8] = target: Vascular endothelial growth factor receptor 3 (Homo sapiens, UniProt P35916); format: functional;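 further: value from a kinome-wide profiling panel, with FLT4 as the panel member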
[9] = target: Non-receptor tyrosine-protein kinase TYK2 (Homo sapiens, UniProt P29597); format: functional
[10] = target: Cyclin-dependent kinase 5 (Homo sapiens, UniProt Q00535); format: functional;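 further: CDK5 measured as one member of a kinase profiling panel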
Chain of Cyclin-dependent kinase 5 (Q00535 whole entry): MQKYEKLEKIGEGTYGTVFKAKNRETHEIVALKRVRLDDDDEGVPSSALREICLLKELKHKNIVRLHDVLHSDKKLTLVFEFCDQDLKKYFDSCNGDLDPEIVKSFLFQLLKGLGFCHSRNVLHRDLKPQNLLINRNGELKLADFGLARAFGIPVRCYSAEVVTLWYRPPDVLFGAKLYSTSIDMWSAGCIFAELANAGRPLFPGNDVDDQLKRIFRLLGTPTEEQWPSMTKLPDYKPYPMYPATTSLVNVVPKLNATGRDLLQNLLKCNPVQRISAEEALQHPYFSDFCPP

[11] = target: cAMP-dependent protein kinase catalytic subunit alpha (Homo sapiens, UniProt P17612); format: functional
[12] = target: Calcium/calmodulin-dependent protein kinase type II subunit gamma (Homo sapiens, UniProt Q13555); format: functional
[13] = target: Serine/threonine-protein kinase MRCK alpha (Homo sapiens, UniProt Q5VT25); format: functional
[14] = target: Protein kinase C gamma type (Homo sapiens, UniProt P05129); format: functional
[15] = target: Ribosomal protein S6 kinase beta-1 (Homo sapiens, UniProt P23443); format: functional;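 further: measured as one member of a kinome-wide profiling panel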
[16] = target: Serine/threonine-protein kinase Nek4 (Homo sapiens, UniProt P51957); format: functional
[17] = target: Casein kinase I isoform alpha (Homo sapiens, UniProt P48729); format: functional
[18] = target: Maternal embryonic leucine zipper kinase (Homo sapiens, UniProt Q14680); format: functional
Chain of Maternal embryonic leucine zipper kinase (Q14680 whole entry): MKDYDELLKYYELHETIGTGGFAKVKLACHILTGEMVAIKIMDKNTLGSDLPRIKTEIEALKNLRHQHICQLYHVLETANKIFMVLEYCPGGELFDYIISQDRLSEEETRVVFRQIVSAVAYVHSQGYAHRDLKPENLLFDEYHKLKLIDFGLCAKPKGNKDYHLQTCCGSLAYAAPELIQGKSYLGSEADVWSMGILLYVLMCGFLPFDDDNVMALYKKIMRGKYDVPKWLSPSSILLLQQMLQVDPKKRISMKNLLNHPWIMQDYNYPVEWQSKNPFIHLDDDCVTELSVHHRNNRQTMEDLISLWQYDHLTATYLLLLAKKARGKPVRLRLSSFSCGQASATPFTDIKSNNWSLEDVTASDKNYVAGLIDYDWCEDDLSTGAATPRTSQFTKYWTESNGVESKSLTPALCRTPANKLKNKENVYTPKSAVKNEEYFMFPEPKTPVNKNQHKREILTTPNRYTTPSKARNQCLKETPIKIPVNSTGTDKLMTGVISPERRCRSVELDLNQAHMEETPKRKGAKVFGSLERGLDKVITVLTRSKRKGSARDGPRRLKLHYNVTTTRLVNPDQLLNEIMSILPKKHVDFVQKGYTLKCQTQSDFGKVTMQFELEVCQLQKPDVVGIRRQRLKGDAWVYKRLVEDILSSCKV

[19] = target: Dual specificity protein kinase CLK2 (Homo sapiens, UniProt P49760); format: functional
[20] = target: Casein kinase I isoform delta (Homo sapiens, UniProt P48730); format: functional;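 further: measured as one member (CSNK1D) of a kinome panel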
[21] = target: RAC-gamma serine/threonine-protein kinase (Homo sapiens, UniProt Q9Y243); format: functional
[22] = target: Tyrosine-protein kinase JAK2 (Homo sapiens, UniProt O60674); format: functional;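 further: JAK2 tested as one member of a kinase panel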
Chain of Tyrosine-protein kinase JAK2 (O60674 whole entry): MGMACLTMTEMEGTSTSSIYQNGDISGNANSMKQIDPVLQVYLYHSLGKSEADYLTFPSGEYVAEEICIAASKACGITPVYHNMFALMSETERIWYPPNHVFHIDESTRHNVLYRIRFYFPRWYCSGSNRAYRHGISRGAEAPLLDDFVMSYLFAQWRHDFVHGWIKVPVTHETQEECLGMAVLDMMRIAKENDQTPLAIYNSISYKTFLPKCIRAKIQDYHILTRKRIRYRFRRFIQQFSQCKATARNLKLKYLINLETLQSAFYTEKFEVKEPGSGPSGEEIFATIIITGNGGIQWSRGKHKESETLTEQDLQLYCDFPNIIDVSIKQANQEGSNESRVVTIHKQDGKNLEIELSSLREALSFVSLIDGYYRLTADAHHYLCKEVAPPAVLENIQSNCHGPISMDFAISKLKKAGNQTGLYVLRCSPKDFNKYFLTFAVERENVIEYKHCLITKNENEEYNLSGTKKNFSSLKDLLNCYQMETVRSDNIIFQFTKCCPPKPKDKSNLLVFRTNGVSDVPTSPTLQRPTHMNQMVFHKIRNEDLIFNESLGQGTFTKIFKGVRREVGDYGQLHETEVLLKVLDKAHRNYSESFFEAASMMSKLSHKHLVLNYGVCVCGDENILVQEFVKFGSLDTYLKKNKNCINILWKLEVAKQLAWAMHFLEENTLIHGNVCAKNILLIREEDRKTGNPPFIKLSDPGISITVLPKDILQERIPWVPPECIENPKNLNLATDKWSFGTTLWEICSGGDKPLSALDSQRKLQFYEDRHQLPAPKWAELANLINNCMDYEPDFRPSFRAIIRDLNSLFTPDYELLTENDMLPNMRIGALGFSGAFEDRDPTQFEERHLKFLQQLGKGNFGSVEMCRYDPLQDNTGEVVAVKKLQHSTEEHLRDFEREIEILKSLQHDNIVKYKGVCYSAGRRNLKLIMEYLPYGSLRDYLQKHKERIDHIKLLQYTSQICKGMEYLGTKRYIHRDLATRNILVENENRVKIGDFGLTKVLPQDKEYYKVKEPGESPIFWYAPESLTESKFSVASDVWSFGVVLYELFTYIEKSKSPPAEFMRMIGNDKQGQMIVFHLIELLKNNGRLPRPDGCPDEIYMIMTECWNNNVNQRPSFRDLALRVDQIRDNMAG

[23] = target: Vascular endothelial growth factor receptor 2 (Homo sapiens, UniProt P35968); format: functional
[24] = target: Serine/threonine-protein kinase DCLK1 (Homo sapiens, UniProt O15075); format: functional;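 further: affinity for DCLK1 (listed as DCAMKL1) measured as one member of a kinome-wide kinase profiling panel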
Chain of Serine/threonine-protein kinase DCLK1 (O15075 whole entry): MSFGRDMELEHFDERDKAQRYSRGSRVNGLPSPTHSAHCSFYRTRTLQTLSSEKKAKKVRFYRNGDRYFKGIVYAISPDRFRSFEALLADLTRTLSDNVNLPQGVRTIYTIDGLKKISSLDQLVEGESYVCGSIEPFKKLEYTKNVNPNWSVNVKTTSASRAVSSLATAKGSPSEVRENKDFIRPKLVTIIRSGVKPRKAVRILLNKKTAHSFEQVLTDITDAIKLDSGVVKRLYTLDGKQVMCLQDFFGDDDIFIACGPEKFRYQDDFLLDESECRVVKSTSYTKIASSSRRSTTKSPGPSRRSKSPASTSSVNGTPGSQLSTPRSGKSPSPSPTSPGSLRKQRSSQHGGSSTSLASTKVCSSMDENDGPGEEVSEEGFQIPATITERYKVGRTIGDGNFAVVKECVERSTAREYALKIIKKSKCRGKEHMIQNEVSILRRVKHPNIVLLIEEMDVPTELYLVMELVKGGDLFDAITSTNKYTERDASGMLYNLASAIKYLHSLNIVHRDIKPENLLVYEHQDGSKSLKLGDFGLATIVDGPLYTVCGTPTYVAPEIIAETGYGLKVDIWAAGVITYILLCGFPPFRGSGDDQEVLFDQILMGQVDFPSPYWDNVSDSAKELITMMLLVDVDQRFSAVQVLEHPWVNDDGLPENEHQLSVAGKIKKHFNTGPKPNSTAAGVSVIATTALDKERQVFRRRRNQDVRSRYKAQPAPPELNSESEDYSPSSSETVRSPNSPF

[25] = target: Calcium/calmodulin-dependent protein kinase type 1 (Homo sapiens, UniProt Q14012); format: functional
Chain of Calcium/calmodulin-dependent protein kinase type 1 (Q14012 whole entry): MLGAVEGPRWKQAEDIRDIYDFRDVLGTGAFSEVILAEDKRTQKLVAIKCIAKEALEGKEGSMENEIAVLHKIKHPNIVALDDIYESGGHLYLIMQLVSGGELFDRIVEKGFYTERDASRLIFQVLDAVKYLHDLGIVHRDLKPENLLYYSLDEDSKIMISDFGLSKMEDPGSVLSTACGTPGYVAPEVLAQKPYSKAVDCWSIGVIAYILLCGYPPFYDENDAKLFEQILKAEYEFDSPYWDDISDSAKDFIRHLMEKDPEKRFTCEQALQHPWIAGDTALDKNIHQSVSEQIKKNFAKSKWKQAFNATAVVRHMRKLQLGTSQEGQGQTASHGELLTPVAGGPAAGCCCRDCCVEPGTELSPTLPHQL

[26] = target: Serine/threonine-protein kinase PAK 4 (Homo sapiens, UniProt O96013); format: functional;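 further: value obtained within a kinome profiling panel in which PAK4 was one of the panel members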
[27] = target: Dual specificity tyrosine-phosphorylation-regulated kinase 1A (Homo sapiens, UniProt Q13627); format: functional;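 further: measured against DYRK1A as one member of a broad kinome profiling panel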
[28] = target: Serine/threonine-protein kinase Chk1 (Homo sapiens, UniProt O14757); format: functional;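 further: measured as one member of a kinome-wide kinase profiling panel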
[29] = target: Protein-tyrosine kinase 6 (Homo sapiens, UniProt Q13882); format: functional
Chain of Protein-tyrosine kinase 6 (Q13882 whole entry): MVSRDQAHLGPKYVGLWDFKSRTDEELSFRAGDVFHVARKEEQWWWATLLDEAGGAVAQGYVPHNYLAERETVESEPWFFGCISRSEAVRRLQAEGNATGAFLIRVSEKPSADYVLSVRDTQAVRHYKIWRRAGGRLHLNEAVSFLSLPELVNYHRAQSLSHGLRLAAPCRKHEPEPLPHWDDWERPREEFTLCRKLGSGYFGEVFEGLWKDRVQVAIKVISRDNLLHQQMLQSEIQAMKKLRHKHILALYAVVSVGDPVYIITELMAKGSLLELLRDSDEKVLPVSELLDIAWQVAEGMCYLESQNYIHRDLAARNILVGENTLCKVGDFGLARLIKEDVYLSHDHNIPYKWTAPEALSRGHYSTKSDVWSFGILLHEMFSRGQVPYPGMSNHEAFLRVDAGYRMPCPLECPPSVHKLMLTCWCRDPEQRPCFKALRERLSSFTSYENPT

[30] = target: Glycogen synthase kinase-3 beta (Homo sapiens, UniProt P49841); format: functional;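 further: value comes from a broad kinome profiling panel, with GSK3B as the panel member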
[31] = target: Lymphokine-activated killer T-cell-originated protein kinase (Homo sapiens, UniProt Q96KB5); format: functional;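 further: value comes from a kinase panel screen in which TOPK was one of the panel members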
Chain of Lymphokine-activated killer T-cell-originated protein kinase (Q96KB5 whole entry): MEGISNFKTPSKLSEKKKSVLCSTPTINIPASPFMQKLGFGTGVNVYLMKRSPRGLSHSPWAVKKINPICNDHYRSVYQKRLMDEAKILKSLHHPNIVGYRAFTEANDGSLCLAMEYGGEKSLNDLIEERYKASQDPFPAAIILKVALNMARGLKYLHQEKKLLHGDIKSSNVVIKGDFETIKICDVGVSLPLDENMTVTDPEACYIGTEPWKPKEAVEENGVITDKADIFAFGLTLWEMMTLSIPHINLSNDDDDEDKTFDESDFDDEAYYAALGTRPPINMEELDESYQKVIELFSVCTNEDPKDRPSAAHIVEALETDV

[32] = target: High affinity nerve growth factor receptor (Homo sapiens, UniProt P04629); format: functional;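 further: NTRK1 tested as one member of a kinome-wide profiling panel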
[33] = Fluorescence-based cell-based high throughput dose response assay for inhibitors of the interaction of nucleotide-binding oligomerization domain containing 2 (NOD2) and the receptor-interacting serine-threonine kinase 2 (RIPK2).; format: functional; details: Homo sapiens
HEK293 = assay: NOD1 signaling inhibitors, primary screen, cell-based, luminescence, uHTS (AID 1578); format: functional; details: Homo sapiens
Caspase-3 = target: T1, Caspase-3 (Homo sapiens, UniProt P42574); assay: SAR Analysis of small molecule inhibitors of Sentrin-specific proteases (SENPs) using a Caspase-3 Selectivity assay. [Related pubchem assays (depositor defined):AID2540, AID2599, AID434973, AID489001]; format: functional
T1 sequence (P42574 whole entry): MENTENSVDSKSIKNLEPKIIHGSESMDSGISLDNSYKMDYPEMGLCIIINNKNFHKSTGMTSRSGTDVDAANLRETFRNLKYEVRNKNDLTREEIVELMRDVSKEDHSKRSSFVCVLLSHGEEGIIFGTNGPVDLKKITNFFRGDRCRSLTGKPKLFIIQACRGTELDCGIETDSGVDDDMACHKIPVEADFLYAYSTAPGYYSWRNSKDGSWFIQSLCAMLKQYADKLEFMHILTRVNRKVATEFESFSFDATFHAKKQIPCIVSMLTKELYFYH

[34] = target: Peroxisome proliferator-activated receptor gamma/Nuclear receptor coactivator 3 (Homo sapiens, UniProt P37231); format: functional;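 further: agonist potency for raising coactivator recruitment to the receptor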
[35] = target: Glucose-6-phosphate 1-dehydrogenase (Homo sapiens, UniProt P11413); assay: human G6PD enzyme inhibitors, dose response, selectivity assay for P. falciparum G6PD inhibitor project, biochemical, fluorescence (AID 504792); format: functional
[36] = Luminescence Cell-Based Dose Response HTS to Identify Activators of Luciferase Translation or Activity in H4 […] Cells. [Related pubchem assays: 1829 (Project Summary), 1814 (Primary HTS)]; format: functional

Chain of Hexokinase-1 (P19367 whole entry): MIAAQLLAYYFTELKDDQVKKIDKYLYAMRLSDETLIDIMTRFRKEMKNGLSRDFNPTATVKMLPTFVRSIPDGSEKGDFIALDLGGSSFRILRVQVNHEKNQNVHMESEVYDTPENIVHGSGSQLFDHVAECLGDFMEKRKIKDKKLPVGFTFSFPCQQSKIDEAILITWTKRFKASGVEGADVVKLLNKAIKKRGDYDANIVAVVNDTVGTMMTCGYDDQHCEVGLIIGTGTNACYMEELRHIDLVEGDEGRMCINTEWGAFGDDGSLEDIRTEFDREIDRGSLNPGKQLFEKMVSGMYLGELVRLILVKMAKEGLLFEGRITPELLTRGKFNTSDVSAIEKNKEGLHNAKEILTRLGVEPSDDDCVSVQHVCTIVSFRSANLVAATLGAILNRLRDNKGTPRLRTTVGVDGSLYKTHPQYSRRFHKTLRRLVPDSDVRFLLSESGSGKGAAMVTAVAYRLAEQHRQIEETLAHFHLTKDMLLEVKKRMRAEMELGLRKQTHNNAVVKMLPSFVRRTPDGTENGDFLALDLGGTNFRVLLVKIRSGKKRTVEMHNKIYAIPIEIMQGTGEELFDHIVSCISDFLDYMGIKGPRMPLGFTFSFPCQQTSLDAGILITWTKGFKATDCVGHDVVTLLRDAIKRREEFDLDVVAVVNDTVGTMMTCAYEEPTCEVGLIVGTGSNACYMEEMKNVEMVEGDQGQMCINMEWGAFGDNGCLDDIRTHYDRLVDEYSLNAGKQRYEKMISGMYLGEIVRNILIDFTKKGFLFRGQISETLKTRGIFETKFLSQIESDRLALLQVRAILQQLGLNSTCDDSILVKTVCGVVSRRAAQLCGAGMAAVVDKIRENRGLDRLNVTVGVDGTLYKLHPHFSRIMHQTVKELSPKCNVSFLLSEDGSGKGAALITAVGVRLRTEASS

SMILES: O=C1C(Cl)=C(NCc2cccnc2)C(=O)c2ccccc21
EC50 (Hexokinase-1): 30.8 µM (inactive)

SMILES: Cc1ccc(Nc2cc(C)nn2-c2nc(C)cc(O)n2)cc1
EC50 (BJ [1]): 14 µM (active) | IC50 [2]: > 32 µM | EC50 (Beta-galactosidase): > 31.5 µM (inactive) | CC50 (HeLa): 7.59 µM (active) | EC50 (BJ [3]): 0.549 µM (active)

Ki [4]: 0.251 µM (active) | Ki [5]: > 1.58 µM (inactive) | Ki [6]: > 1.58 µM (inactive) | Ki [7]: 6.31 µM (active) | Ki [8]: > 6.31 µM (inactive) | Ki [9]: > 2 µM (inactive) | Ki [10]: > 10 µM (inactive) | Ki [11]: > 7.94 µM (inactive) | Ki [12]: 0.501 µM (active) | Ki [13]: > 10 µM (inactive) | Ki [14]: > 7.94 µM (inactive) | Ki [15]: 6.31 µM (active) | Ki [16]: > 6.31 µM (inactive) | Ki [17]: > 6.31 µM (inactive) | Ki [18]: 0.631 µM (active) | Ki [19]: 7.94 µM (active) | Ki [20]: 5.01 µM (active) | Ki [21]: > 10 µM (inactive) | Ki [22]: > 1.58 µM (inactive) | Ki [23]: > 7.94 µM (inactive) | Ki [24]: > 10 µM (inactive) | Ki [25]: > 3.16 µM (inactive) | Ki [26]: > 5.01 µM (inactive) | Ki [27]: 1 µM (active) | Ki [28]: > 7.94 µM (inactive) | Ki [29]: > 2.51 µM (inactive) | Ki [30]: 0.501 µM (active) | Ki [32]: > 2.51 µM (inactive)
SMILES: O=C1NC(=S)SC1=C1C(=O)Nc2ccc(Br)cc21
Ki [31]: 7.94 µM (active)

SMILES: Cc1ccc(C(=O)c2c(C)oc3c2C(=O)C(=O)c2ccccc2-3)cc1
IC50 [33]: 6.83 µM (active)

SMILES: O=C1C(O)=C/C(=N\c2ccccc2O)c2ccccc21
EC50 (HEK293): 14.8 µM (active)

SMILES: Cc1cnc(NC(=O)c2sc3ccccc3c2Cl)s1
IC50 (Caspase-3): 3.14 µM (active)

SMILES: CN(C)c1ncc(C2=C(Cl)C(=O)C(N3CCCC3)=C(Cl)C2=O)s1
EC50 [34]: > 79.4 µM (not active) | IC50 [35]: 30.7 µM (inactive) | EC50 [36]: 13.7 µM (active)
